Patent publication US20220031719A1, “ANTIVIRAL THERAPEUTIC DRUG COMBINATIONS” (THE UNIVERSITY OF TULSA, priority 2020, published 2022)
“Also recorded” adds a separate entry of the source. Like-named read-outs stand apart in the source and are kept apart here.

Legend:
Type in all cases: cell-based
[1] = system: Human Diploid Fibroblasts (HDFs); test: ATP levels by CellTiterGlo in Human Diploid Fibroblasts; settings: HDFs in DMEM, in the presence of 2-DG
Description: Cell culture. […] Cells were maintained in DMEM (Fisher Scientific) supplemented with 10% fetal bovine serum (FBS; Atlas Biologicals, Fort Collins, Colo.). DMEM media contained high glucose (25 mM) and the standard amino acids as carbon sources. Cultures were maintained in a 37° C. water jacketed incubator with 5% CO2. When needed cells were removed from the plate using trypsin. […] Unless indicated otherwise, after removal, cells were pelleted by centrifugation (2K 4 min room temperature), aspirated, and re-suspended in the desired media.
Inhibition assays. In general, short term immediate effects of the indicated drugs on ATP levels were analyzed by removing growing cells from a p100 mm plate using trypsin, washing with PBS, and re-suspending in the indicated media. After counting using a hemocytometer, 25-50k cells in 100 mL media were distributed in a 96 well white flat bottom, non-treated polystyrene assay plate. In some cases, media was supplemented by the addition of glucose (20 mM final). […] Incubation times were generally between 1 and 2 h so that direct and immediate effects on ATP production could be evaluated. In most cases samples were run in duplicate or triplicate and the standard deviation determined. […] The luminescence was determined immediately and at later times as described above.

h293 cells = test: ATP levels by CellTiterGlo in h293 cells (inhibition assays)
Description: Drugs. All drugs were obtained from Sigma except diphenhydramine (purchased commercially as 25 mg allergy tablets) and famotidine (purchased commercially as 10 mg acid controller tablets). All compounds were dissolved in ultrapure water except quinine, which was re-suspended in ethanol. Rotenone was prepared as a concentrated solution in 100% DMSO, then diluted to a working stock (125 μM) in water (final concentration 2.5 μM). 2-DG was used at a final concentration of 20 mM. Diphenhydramine and famotidine were crushed by mortar and pestle, re-suspended in H2O and rotated at room temperature for 1 h. Insoluble material (e.g., cellulose) was removed by centrifugation. […] Cigar smoke was generated from commercially available Backwoods brand containing nicotine.
Cell culture. The following immortalized cells were obtained from the American Tissue Culture Collection: H293 kidney epithelial cells, HDFs (human diploid fibroblasts immortalized by telomerase expression), and U549 lung carcinoma cells. Cells were maintained in DMEM (Fisher Scientific) supplemented with 10% fetal bovine serum (FBS; Atlas Biologicals, Fort Collins, Colo.). DMEM media contained high glucose (25 mM) and the standard amino acids as carbon sources. Cultures were maintained in a 37° C. water jacketed incubator with 5% CO2. When needed cells were removed from the plate using trypsin. It is important to note that FBS and many commercial preparations of trypsin contain glucose. Unless indicated otherwise, after removal, cells were pelleted by centrifugation (2K 4 min room temperature), aspirated, and re-suspended in the desired media. Other media used in this study were DMEM no glu (Fisher Scientific), which is identical to DMEM except it lacks glucose. L-15 media (Fisher Scientific) contains amino acids but replaces glucose with 5 mM galactose. It also lacks sodium bicarbonate (NaHCO3), which was added to the same concentration as in DMEM (44 mM) in all experiments except FIGS. 4A and 4B. Its presence is essential to buffer the media and prevent its acidification in the CO2 incubator. A DMEM type media lacking sodium bicarbonate was also generated using individual components obtained from Fisher Scientific and Sigma. This media was used for FIG. 4D, where its pH was varied by the addition of 500 mM Hepes pH 7-10 (25 mM final concentration).
Inhibition assays. In general, short term immediate effects of the indicated drugs on ATP levels were analyzed by removing growing cells from a p100 mm plate using trypsin, washing with PBS, and re-suspending in the indicated media. After counting using a hemocytometer, 25-50k cells in […] media were distributed in a 96 well white flat bottom, non-treated polystyrene assay plate. In some cases, media was supplemented by the addition of glucose (20 mM final). The plate was typically incubated for 30 min at 37° C. in a CO2 incubator to allow metabolic pathways to adapt to the media. Drugs when then added in the order and at the concentration indicated for each figure, followed by shaking (700 RPM 10 sec), and returned to the incubator. Incubation times were generally between 1 and 2 h so that direct and immediate effects on ATP production could be evaluated. In most cases samples were run in duplicate or triplicate and the standard deviation determined. FIG. 1B is a more traditional drug analysis, in that cells were seeded in a tissue culture treated 96-well plate, allowed to attach overnight, then treated with 10 μL CellTiterBlue resazurin reagent (Promega) to determine effects on viability. Plates were shaken and incubated in the dark for 1-4 h, followed by excitation at 560 nm and determination of fluorescence emitted at 590 nm using a Tecan Safire plate reader. […] Luciferase activity alone (FIG. 1C) was measured by adding 10 CellTiterGlo reagent to 100 μL DMEM media in the absence of cells. […] The luminescence was determined immediately and at later times as described above.

Red blood cells = test: ATP levels by CellTiterGlo in red blood cells; settings: RBCs in DMEM containing 5 mM glucose
[2] = h293 cells in DMEM (glucose and amino acids), drug alone, short exposure (2 h), no 2-DG or rotenone
[3] = h293 cells in DMEM containing amino acids but lacking glucose, drug alone
[4] = h293 cells in DMEM, in the presence of 2-DG (forced TCA/ETC), drug 2 h
[5] = h293 cells in DMEM, in the presence of rotenone (forced glycolysis), drug 2 h
[6] = h293 cells in L-15 media (galactose, plus NaHCO3), no glucose, drug titration
[7] = h293 cells in L-15 media lacking NaHCO3 (acidified), 37° C. CO2 incubator
[8] = h293 cells in L-15 media plus glucose, drug titration
[9] = h293 cells in DMEM no glucose (amino acids only), metabolic inhibitors for 1 h
[10] = h293 cells in DMEM with glucose, metabolic inhibitors for 1 h (2-DG 20 mM, rotenone 2.5 μM)
[11] = h293 cells in L-15 media (galactose instead of glucose), metabolic inhibitors

CCN(CC)CCCC(C)Nc1ccnc2cc(Cl)ccc12 (stereo not shown) [CQ, chloroquine]
effect on ATP levels [1]: confirmed | effect on ATP levels (h293 cells; [2]): no apparent effect on ATP levels | effect on ATP production (h293 cells; [3]): inhibited ATP production | effect on ATP levels (h293 cells; h293 cells in DMEM no glucose with glucose added back): minimal effect on ATP levels | effect on ATP levels (h293 cells; [4]): markedly reduced; also recorded: synergistic effect that dramatically reduced ATP production | effect on ATP levels (h293 cells; [5]): no effect on ATP levels | effect on ATP production (h293 cells; [6]): inhibited ATP production; also recorded: very sensitive | effect on ATP production (h293 cells; [7]): no CQ inhibition | effect on ATP production (h293 cells; [8]): prevented inhibition | time course of inhibition of ATP production (h293 cells; h293 cells in L-15 media plus sodium bicarbonate, 250 μM CQ): increased dramatically over time | ATP production after order of addition (h293 cells; h293 cells in media containing glucose treated with CQ, then 2-DG added): re-established inhibition of ATP production; also recorded: CQ inhibition is revealed in the presence of 2-DG | ATP levels after order of addition (h293 cells; h293 cells pre-incubated with CQ 2 h in media lacking glucose, then glucose added for 1 h): re-established ATP levels; also recorded: glucose overcomes CQ inhibition | pH dependency of inhibition of ATP production (h293 cells; h293 cells, 1 h in DMEM type media lacking NaHCO3 adjusted to pH 7 to 10 with 25 mM Hepes, then L-15): dramatic increase in CQ inhibition with increasing pH; also recorded: Increasing media pH increases ability of CQ to inhibit ATP production | effect on ATP levels (CellTiterGlo) (h293 cells; h293 cells, overnight titration, same cells as CellTiterBlue): clear CQ dependent decrease | effect on ATP production via glycolysis (Red blood cells): no effect on ATP production

C=C[C@H]1C[N@@]2CC[C@H]1C[C@H]2[C@H](O)c1ccnc2ccc(OC)cc12 [Quinine, quinine]
effect on ATP levels (h293 cells; [4]): much more dramatic in the presence of 2-DG

O=CC[C@@H](O)[C@H](O)[C@H](O)CO [2-DG, 2-deoxy-D-glucose]
effect on ATP production (h293 cells; [9]): significant inhibition | effect on ATP levels (h293 cells; [10]): minimal effect on ATP levels | effect on ATP production (h293 cells; [11]): partially inhibited | effect on ATP production (h293 cells; [7]): sensitive

C=C(C)[C@H]1Cc2c(ccc3c2O[C@@H]2COc4cc(OC)c(OC)cc4[C@@H]2C3=O)O1 [rotenone]
effect on ATP production (h293 cells; [9]): complete inhibition | effect on ATP levels (h293 cells; [10]): no effect | effect on ATP production (h293 cells; [11]): completely inhibited | effect on ATP production (h293 cells; [7]): sensitive

CN1CCCC1c1cccnc1 (stereo not shown) [nicotine]
effect on ATP levels (h293 cells): specificity for inhibiting mitochondrial ATP production

NC(N)=Nc1nc(CSCCC(N)=NS(N)(=O)=O)cs1 [famotidine]
effect on ATP levels (h293 cells; [2]): no effect on ATP production | effect on ATP levels (h293 cells; [4]): no effect on ATP production

CCN(CCO)CCCC(C)Nc1ccnc2cc(Cl)ccc12 (stereo not shown) [HCQ, hydroxychloroquine]
effect on ATP production (h293 cells; [3]): inhibited ATP production | effect on ATP levels (h293 cells; [4]): synergistic effect that dramatically reduced ATP production | effect on ATP levels (h293 cells; [5]): no effect on ATP levels | effect on ATP production (h293 cells; [6]): inhibited ATP production; also recorded: very sensitive | effect on ATP production (h293 cells; [8]): prevented inhibition

CN(C)CCOC(c1ccccc1)c1ccccc1 [diphenhydramine]
effect on ATP levels (h293 cells; [2]): minimal effect on ATP production | effect on ATP levels (h293 cells; [4]): strongly inhibited; also recorded: specifically inhibited mitochondrial ATP production
